The record followed here is ChEMBL document CHEMBL5653631, “A Potent and Selective ULK1 Inhibitor Suppresses Autophagy and Sensitizes Cancer Cells to Nutrient Stress” (iScience, 2018).

The target in test [1] is Calcium/calmodulin-dependent protein kinase type II subunit beta (Homo sapiens) (UniProt Q13554). Description: Inhibition of human recombinant CaMK2b at 40 nM in presence of ATP by radiometric assay relative to control.
Test [2] addresses Vascular endothelial growth factor receptor 1 (Homo sapiens) (UniProt P17948). In words: Inhibition of human recombinant FLT1 at 500 nM in presence of ATP by radiometric assay relative to control.
Test [3] deals with T1, Mitogen-activated protein kinase kinase kinase 7 (Homo sapiens) (UniProt O43318).
T1 sequence (whole entry): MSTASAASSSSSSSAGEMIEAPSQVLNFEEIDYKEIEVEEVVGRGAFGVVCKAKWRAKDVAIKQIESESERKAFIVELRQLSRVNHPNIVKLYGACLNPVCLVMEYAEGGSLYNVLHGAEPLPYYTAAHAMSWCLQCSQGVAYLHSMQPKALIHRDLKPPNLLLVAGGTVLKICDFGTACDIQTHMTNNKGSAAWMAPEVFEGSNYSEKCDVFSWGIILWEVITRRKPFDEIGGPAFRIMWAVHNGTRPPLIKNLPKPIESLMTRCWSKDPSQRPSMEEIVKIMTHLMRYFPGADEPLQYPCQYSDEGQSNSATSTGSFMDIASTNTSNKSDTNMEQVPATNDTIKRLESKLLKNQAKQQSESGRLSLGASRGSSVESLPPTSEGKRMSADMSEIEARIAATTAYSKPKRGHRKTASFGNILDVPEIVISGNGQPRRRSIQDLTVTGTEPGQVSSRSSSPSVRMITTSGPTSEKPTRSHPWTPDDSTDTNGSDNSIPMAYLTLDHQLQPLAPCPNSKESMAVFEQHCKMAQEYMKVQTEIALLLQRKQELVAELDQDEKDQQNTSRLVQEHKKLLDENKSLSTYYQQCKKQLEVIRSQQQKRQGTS
In words: Inhibition of human recombinant TAK1 at 500 nM related to control ULK1.

In test [4] the target is T2, Ephrin type-B receptor 2 (Homo sapiens) (UniProt P29323).
T2 sequence (whole entry): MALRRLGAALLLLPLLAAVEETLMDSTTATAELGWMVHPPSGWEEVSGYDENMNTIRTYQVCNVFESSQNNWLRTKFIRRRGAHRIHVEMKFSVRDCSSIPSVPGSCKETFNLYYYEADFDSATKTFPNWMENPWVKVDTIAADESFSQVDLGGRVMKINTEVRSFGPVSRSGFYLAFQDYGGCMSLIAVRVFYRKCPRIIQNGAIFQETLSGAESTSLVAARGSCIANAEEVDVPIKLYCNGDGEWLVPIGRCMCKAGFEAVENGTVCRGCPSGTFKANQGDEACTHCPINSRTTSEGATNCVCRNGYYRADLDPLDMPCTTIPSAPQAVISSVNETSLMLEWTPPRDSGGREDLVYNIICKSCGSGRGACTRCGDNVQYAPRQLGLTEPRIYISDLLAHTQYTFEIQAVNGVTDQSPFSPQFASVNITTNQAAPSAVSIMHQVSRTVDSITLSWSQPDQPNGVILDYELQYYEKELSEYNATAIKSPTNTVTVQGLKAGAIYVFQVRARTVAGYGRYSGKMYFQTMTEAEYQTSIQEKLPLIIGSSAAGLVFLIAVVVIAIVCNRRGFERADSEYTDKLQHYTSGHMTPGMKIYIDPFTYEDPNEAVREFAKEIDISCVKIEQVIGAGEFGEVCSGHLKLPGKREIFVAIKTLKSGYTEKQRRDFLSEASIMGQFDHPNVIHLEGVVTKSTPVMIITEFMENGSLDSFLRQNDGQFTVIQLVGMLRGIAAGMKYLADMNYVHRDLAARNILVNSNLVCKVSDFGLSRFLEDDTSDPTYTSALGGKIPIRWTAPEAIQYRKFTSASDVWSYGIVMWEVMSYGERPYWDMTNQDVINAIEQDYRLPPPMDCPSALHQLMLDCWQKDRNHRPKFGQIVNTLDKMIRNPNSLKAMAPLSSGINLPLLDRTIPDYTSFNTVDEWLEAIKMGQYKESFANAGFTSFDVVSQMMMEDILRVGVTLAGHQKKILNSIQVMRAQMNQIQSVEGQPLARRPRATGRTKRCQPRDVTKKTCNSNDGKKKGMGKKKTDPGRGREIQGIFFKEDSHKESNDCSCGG
Description: Inhibition of human recombinant EphB2 at 15 nM in presence of ATP by radiometric assay relative to control.

The target in test [5] is T3, Dual specificity mitogen-activated protein kinase kinase 6 (Homo sapiens) (UniProt P52564).
T3 sequence (whole entry): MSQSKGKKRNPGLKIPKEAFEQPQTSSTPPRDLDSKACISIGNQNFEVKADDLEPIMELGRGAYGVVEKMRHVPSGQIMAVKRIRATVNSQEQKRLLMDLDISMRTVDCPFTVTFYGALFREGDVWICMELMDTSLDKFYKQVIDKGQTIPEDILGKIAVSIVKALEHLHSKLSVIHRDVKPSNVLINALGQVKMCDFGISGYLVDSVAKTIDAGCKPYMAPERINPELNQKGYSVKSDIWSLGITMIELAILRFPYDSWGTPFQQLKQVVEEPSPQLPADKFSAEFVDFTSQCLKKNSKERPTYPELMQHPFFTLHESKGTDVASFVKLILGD
Description: Inhibition of human recombinant MAP2K6 at 15 nM in presence of ATP by radiometric assay relative to control.

Test [6] concerns the target Serine/threonine-protein kinase 32B (Homo sapiens) (UniProt Q9NY57). In words: Inhibition of human recombinant YANK2 at 15 nM in presence of ATP by radiometric assay relative to control.

Molecules are shown by their SMILES.

A word on the inhibition: it is the share of the control response that was lost under treatment.

Chain of Calcium/calmodulin-dependent protein kinase type II subunit beta (Homo sapiens) (Q13554 whole entry): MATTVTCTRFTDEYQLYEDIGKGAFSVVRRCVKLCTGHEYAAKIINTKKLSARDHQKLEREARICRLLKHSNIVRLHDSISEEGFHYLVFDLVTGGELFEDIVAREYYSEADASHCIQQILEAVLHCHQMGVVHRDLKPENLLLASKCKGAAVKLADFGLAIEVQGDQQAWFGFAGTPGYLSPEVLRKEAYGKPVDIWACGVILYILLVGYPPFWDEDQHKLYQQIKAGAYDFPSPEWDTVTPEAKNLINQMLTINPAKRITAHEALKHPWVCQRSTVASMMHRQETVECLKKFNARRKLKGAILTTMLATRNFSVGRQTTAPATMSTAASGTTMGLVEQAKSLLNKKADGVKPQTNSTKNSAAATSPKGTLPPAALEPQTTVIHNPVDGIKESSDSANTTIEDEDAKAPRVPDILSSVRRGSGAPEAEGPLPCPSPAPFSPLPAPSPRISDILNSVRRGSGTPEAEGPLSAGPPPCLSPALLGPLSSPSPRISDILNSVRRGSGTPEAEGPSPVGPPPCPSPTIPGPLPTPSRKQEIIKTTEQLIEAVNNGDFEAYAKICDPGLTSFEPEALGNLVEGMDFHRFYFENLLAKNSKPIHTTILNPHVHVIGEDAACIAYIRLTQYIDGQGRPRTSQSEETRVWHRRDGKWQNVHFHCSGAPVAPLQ
Chain of Vascular endothelial growth factor receptor 1 (Homo sapiens) (P17948 whole entry): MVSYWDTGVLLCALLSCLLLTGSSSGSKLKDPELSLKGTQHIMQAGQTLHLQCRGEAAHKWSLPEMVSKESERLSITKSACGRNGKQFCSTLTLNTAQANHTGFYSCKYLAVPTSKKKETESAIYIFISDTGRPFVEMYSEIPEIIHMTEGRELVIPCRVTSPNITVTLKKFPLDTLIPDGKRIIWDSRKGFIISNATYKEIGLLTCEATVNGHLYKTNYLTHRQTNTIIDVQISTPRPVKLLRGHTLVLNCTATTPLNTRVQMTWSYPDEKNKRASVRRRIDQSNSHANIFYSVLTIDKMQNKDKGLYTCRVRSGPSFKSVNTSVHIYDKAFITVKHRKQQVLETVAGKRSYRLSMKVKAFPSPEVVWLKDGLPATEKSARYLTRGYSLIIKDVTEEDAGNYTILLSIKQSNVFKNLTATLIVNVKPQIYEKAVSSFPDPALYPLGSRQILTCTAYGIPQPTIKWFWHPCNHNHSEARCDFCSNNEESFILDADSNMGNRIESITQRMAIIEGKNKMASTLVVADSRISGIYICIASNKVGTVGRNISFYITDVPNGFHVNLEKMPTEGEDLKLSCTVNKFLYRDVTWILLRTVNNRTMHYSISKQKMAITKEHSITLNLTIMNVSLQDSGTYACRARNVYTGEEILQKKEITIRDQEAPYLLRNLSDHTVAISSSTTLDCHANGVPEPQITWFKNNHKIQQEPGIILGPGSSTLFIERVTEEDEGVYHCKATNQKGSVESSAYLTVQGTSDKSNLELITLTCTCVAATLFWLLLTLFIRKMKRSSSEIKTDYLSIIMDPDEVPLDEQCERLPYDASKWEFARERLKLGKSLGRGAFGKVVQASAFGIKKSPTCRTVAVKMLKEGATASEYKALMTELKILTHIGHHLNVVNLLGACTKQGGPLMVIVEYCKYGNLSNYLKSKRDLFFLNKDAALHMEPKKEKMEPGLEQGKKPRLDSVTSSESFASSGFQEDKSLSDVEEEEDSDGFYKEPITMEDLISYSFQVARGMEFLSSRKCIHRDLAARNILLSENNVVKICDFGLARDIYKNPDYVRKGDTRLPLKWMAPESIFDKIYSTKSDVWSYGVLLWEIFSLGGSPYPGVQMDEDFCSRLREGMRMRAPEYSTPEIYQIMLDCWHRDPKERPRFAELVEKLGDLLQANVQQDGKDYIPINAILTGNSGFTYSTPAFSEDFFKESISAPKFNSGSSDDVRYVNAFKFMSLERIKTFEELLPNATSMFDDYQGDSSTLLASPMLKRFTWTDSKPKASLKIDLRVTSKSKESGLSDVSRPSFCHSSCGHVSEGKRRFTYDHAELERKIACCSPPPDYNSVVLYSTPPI
Chain of Serine/threonine-protein kinase 32B (Homo sapiens) (Q9NY57 whole entry): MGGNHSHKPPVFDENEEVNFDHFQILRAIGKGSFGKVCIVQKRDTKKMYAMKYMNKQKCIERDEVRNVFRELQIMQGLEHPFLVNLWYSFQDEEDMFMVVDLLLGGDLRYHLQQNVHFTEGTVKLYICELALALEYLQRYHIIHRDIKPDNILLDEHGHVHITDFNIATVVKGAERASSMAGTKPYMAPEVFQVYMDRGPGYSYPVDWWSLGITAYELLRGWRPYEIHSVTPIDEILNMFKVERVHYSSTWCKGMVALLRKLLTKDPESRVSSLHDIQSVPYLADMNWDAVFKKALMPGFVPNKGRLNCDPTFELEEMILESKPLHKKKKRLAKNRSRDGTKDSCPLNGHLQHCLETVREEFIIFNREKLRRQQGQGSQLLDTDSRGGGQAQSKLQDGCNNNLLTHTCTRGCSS

For the compound `O=C(N[C@@H](C1CC1)C(F)(F)F)c1cc(-c2cnn3cc(-c4ccc(F)cc4)cnc23)cs1`, the inhibition in test [1] amounted to 0%.
In the case of `CNC(=O)c1ccccc1Oc1nc(Nc2cc(OC)c(OC)c(OC)c2)ncc1Br`, the inhibition in test [2] stood at 2%. In test [3], the fold change (FC) came to 0.03.
In the case of `CC(C)[C@H](NC(=O)c1cc(-c2cnn3cc(-c4ccc(OCCN5CCCCC5)cc4)cnc23)cs1)C(F)(F)F`, the inhibition in test [4] came out at 7%; in test [5], 5%; in test [6], 0%.
